Results reported in patent publication CN101125142A, “青蒿素在制备抗肿瘤多药耐药药物中的应用” (DONGZHIMEN HOSPITAL AFFILIATED TO BEIJING UNIVERSITY OF …, priority 2007, dated 2008).
Where “and” joins values, the source holds several entries; their conditions need not be identical. Identical values can stand only once. Entries after “also recorded” stand apart in the source; their conditions may differ. Like-named read-outs stand apart in the source and are kept apart here.

Tests used:
KBV200 cells (KBV200细胞) [1] = details: KBV200 cell line; cited from earlier work
KBV200 cells (KBV200细胞) [2] = experiment: MTT cytotoxicity test: growth inhibition of KBV200 cells by single agents; assay type: cell-based, human; details: for IC50: KBv200; for inhibitory effect on tumour cells compared with another agent: artesunate versus artemisinin, dihydroartemisinin versus artesunate
KBV200 cells (KBV200细胞) [3] = experiment: Reversal of resistance: MTT growth inhibition of KBV200 cells by agent combined with VCR; assay type: cell-based, human; details: for inhibition rate of KBV200 cells on combination with VCR: VCR concentration constant, three agent concentrations; for reversal of vincristine resistance / sensitisation of KBV200 to VCR: agent combined with VCR
[4] = test system: tumour multidrug resistance (肿瘤多药耐药); details: background; cited from earlier work
[5] = Homo sapiens, mass concentration in brackets beside the μmol/l value
[6] = Homo sapiens, single agent, 72 h (discussion)

## O=c1[nH]cc(F)c(=O)[nH]1 [5-氟脲嘧啶]
KBV200 cells (KBV200细胞) [1]
  resistance: 耐药性较低

## CC[C@]1(O)C[C@H]2CN(CCc3c([nH]c4ccccc34)[C@@](C(=O)OC)(c3cc4c(cc3OC)N(C=O)[C@H]3[C@@](O)(C(=O)OC)[C@H](OC(C)=O)[C@]5(CC)C=CCN6CC[C@]43[C@@H]65)C2)C1 [VCR, 长春新碱]
KBV200 cells (KBV200细胞) [2]
  inhibition rate: < 50%
KBV200 cells (KBV200细胞) [2]; Homo sapiens, KBv200, 72 h, VCR 0.125 μg/ml, 72 h, read-out: inhibition rate (IR)
  inhibition at 0.125 µg/mL: 6.51 ± 2.59%
KBV200 cells (KBV200细胞) [2]; Homo sapiens, KBv200, 72 h, VCR 0.250 μg/ml, 72 h, read-out: inhibition rate (IR)
  inhibition at 0.25 µg/mL: 9.06 ± 3.13%
KBV200 cells (KBV200细胞) [2]; Homo sapiens, KBv200, 72 h, VCR 0.500 μg/ml, 72 h, read-out: inhibition rate (IR)
  inhibition at 0.5 µg/mL: 13.9 ± 3.54%
KBV200 cells (KBV200细胞) [2]; Homo sapiens, KBv200, 72 h, VCR 1.000 μg/ml, 72 h, read-out: inhibition rate (IR)
  inhibition at 1 µg/mL: 25.6 ± 1.71%
KBV200 cells (KBV200细胞) [2]; Homo sapiens, KBv200, 72 h, VCR 2.000 μg/ml, 72 h, read-out: inhibition rate (IR)
  inhibition at 2 µg/mL: 66.3 ± 0.01%
KBV200 cells (KBV200细胞) [2]; Homo sapiens, VCR alone, 72 h
  IC50: 1.58 ± 1.22 µg/mL
KBV200 cells (KBV200细胞) [2]; VCR 0.500 μg/ml, 72 h
  inhibition rate (IR): 13.96±3.54%
KBV200 cells (KBV200细胞) [2]; VCR 1.000 μg/ml, 72 h
  inhibition rate (IR): 25.65±1.71%
KBV200 cells (KBV200细胞) [2]; VCR 2.000 μg/ml, 72 h
  inhibition rate (IR): 66.31±0.01%
KBV200 cells (KBV200细胞) [2]; VCR above 1.58 μg/ml
  inhibitory effect on KBV200 cells: 具有较为明显的抑制效应
KBV200 cells (KBV200细胞) [2]; VCR below 1 μg/ml
  inhibitory effect on KBV200 cells: 抑制效应并不明显
KBV200 cells (KBV200细胞) [1]
  fold resistance: ~175 fold

## CC1CCC2C(C)C(O)OC3OC4(C)CCC1C32OO4 (stereo not drawn) [二氢青蒿素]
KBV200 cells (KBV200细胞) [2]; [5]
  IC50: 3.18 µg/mL
KBV200 cells (KBV200细胞) [2]; [6]
  IC50: 11.2 µM
KBV200 cells (KBV200细胞) [2]
  inhibitory effect on tumour cells compared with another agent: 较青蒿琥酯次之
KBV200 cells (KBV200细胞) [2]; dihydroartemisinin 0.156 μmol/l, 72 h
  inhibition rate (IR): 0.680±0.84%
KBV200 cells (KBV200细胞) [2]; dihydroartemisinin 0.313 μmol/l, 72 h
  inhibition rate (IR): 0.940±3.87%
KBV200 cells (KBV200细胞) [2]; dihydroartemisinin 1.250 μmol/l, 72 h
  inhibition rate (IR): < 20% and 10.00±3.31%
KBV200 cells (KBV200细胞) [2]; dihydroartemisinin 2.500 μmol/l, 72 h
  inhibition rate (IR): < 20% and 18.50±4.88%
KBV200 cells (KBV200细胞) [2]; dihydroartemisinin 5.000 μmol/l, 72 h
  inhibition rate (IR): 32.30±10.1%
KBV200 cells (KBV200细胞) [2]; dihydroartemisinin 10.00 μmol/l, 72 h
  inhibition rate (IR): 48.69±6.53%
KBV200 cells (KBV200细胞) [2]; dihydroartemisinin 20.00 μmol/l, 72 h
  inhibition rate (IR): 71.98±7.16%
KBV200 cells (KBV200细胞) [2]; dihydroartemisinin 40.00 μmol/l, 72 h
  inhibition rate (IR): 89.99±4.39%
KBV200 cells (KBV200细胞) [2]; dihydroartemisinin above 11.16 umol/l
  inhibition rate: > 50%
KBV200 cells (KBV200细胞) [2]; dihydroartemisinin below 0.313 umol/l
  inhibitory effect on KBV200 cells: 几乎无抑制效应
KBV200 cells (KBV200细胞) [2]; dihydroartemisinin below 2.5 umol/l
  inhibition rate: < 20%
KBV200 cells (KBV200细胞) [2]; dihydroartemisinin below 10 umol/l
  inhibitory effect on KBV200 cells: 抑制效应并不明显
KBV200 cells (KBV200细胞) [2]; overall statement
  inhibitory effect on KBV200 cells: 大浓度具有一定的抑制KBV200细胞增殖效应; also recorded: 均有一定抑制效应
KBV200 cells (KBV200细胞) [3]
  inhibition rate of KBV200 cells on combination with VCR: 略有提高
  reversal of vincristine resistance / sensitisation of KBV200 to VCR: 有一定的增敏作用
KBV200 cells (KBV200细胞) [3]; dihydroartemisinin 0.625 umol/l with VCR
  reversal fold (RI): 1.35
KBV200 cells (KBV200细胞) [3]; dihydroartemisinin 1.25 umol/l with VCR
  reversal fold (RI): 1.515
KBV200 cells (KBV200细胞) [3]; dihydroartemisinin 2.5 umol/l with VCR
  reversal fold (RI): 1.74

## COc1cc2c(cc1OC)[C@@H]1Cc3ccc(OC)c(OC)c3CN1CC2 [左旋四氢马汀]
[4]
  reversal fold: 8.2-13.0

## COc1cc2c(c(OC)c1OC)-c1ccc(OC)c(=O)cc1[C@@H](NC(C)=O)CC2 [秋水仙素]
KBV200 cells (KBV200细胞) [1]
  fold resistance: ~15 fold

## COc1ccc2cc1Oc1ccc(cc1)C[C@H]1c3cc(c(OC)cc3CCN1C)Oc1c(OC)c(OC)cc3c1[C@H](C2)N(C)CC3 [粉防已碱]
[4]
  reversal fold: 8.2-13.0

## CC(=O)O[C@H]1C(=O)[C@@]2(C)[C@H]([C@H](OC(=O)c3ccccc3)[C@]3(O)C[C@H](OC(=O)[C@H](O)[C@@H](NC(=O)c4ccccc4)c4ccccc4)C(C)=C1C3(C)C)[C@]1(OC(C)=O)CO[C@@H]1C[C@@H]2O [紫杉醇]
KBV200 cells (KBV200细胞) [1]
  fold resistance: ~156 fold

## COc1cc2c(cc1OC)[C@@H](Cc1ccc(Oc3cc(C[C@@H]4c5cc(OC)c(OC)cc5CCN4C)ccc3O)cc1)N(C)CC2 [蝙蝠葛碱]
[4]
  reversal fold: 8.2-13.0

## COc1cccc2c1C(=O)c1c(O)c3c(c(O)c1C2=O)C[C@@](O)(C(=O)CO)C[C@@H]3O[C@H]1C[C@H](N)[C@H](O)[C@H](C)O1 [阿霉素]
KBV200 cells (KBV200细胞) [1]
  fold resistance: ~15 fold

## C[C@H]1[C@H](OC(=O)CCC(=O)O)O[C@@H]2O[C@@]3(C)CC[C@H]4[C@H](C)CC[C@@H]1[C@@]24OO3 [青蒿琥酯]
KBV200 cells (KBV200细胞) [2]
  selective killing of KBV200 cells: 有选择性杀伤作用
  inhibitory effect on tumour cells compared with another agent: 比青蒿素显著增强
KBV200 cells (KBV200细胞) [2]; [5]
  IC50: 0.563 µg/mL
KBV200 cells (KBV200细胞) [2]; [6]
  IC50: 1.47 µM
KBV200 cells (KBV200细胞) [2]; artesunate 0.0156 μmol/l (so in the source), 72 h
  inhibition rate (IR): 9.520±4.910%
KBV200 cells (KBV200细胞) [2]; artesunate 0.0390 μmol/l, 72 h
  inhibition rate (IR): 1.640±3.520%
KBV200 cells (KBV200细胞) [2]; artesunate 0.156 umol/l
  inhibition rate: < 20%
KBV200 cells (KBV200细胞) [2]; artesunate 0.3130 μmol/l, 72 h
  inhibition rate (IR): < 20% and 18.41±4.420%
KBV200 cells (KBV200细胞) [2]; artesunate 0.6250 μmol/l, 72 h
  inhibition rate (IR): 35.25±10.52%
KBV200 cells (KBV200细胞) [2]; artesunate 1.2500 μmol/l, 72 h
  inhibition rate (IR): 47.56±1.250%
KBV200 cells (KBV200细胞) [2]; artesunate 2.5000 μmol/l, 72 h
  inhibition rate (IR): 57.67±1.110%
KBV200 cells (KBV200细胞) [2]; artesunate 5.0000 μmol/l, 72 h
  inhibition rate (IR): 69.85±6.900%
KBV200 cells (KBV200细胞) [2]; artesunate 10.000 μmol/l, 72 h
  inhibition rate (IR): 84.47±0.600%
KBV200 cells (KBV200细胞) [2]; artesunate 20.000 μmol/l, 72 h
  inhibition rate (IR): 95.02±6.560%
KBV200 cells (KBV200细胞) [2]; artesunate above 1.466 umol/l
  inhibition rate: > 50%
KBV200 cells (KBV200细胞) [2]; artesunate below 0.039 umol/l
  inhibitory effect on KBV200 cells: 几乎无抑制效应
KBV200 cells (KBV200细胞) [2]; artesunate below 0.313 umol/l
  inhibition rate: < 20%
KBV200 cells (KBV200细胞) [2]; artesunate below 1.25 umol/l
  inhibitory effect on KBV200 cells: 抑制效应并不明显
KBV200 cells (KBV200细胞) [2]; overall statement
  inhibitory effect on KBV200 cells: 大浓度具有一定的抑制KBV200细胞增殖效应; also recorded: 均有一定抑制效应
KBV200 cells (KBV200细胞) [3]
  inhibition rate of KBV200 cells on combination with VCR: 略有提高
  reversal of vincristine resistance / sensitisation of KBV200 to VCR: 有一定的增敏作用
KBV200 cells (KBV200细胞) [3]; artesunate 0.078 umol/l with VCR
  reversal fold (RI): 1.19
KBV200 cells (KBV200细胞) [3]; artesunate 0.156 umol/l with VCR
  reversal fold (RI): 1.79
KBV200 cells (KBV200细胞) [3]; artesunate 0.313 umol/l with VCR
  reversal fold (RI): 2.57

## C[C@@H]1CC[C@H]2[C@@H](C)C(=O)O[C@@H]3O[C@@]4(C)CC[C@@H]1[C@]32OO4 [青蒿素]
KBV200 cells (KBV200细胞) [2]; [5]
  IC50: 48.6 µg/mL
KBV200 cells (KBV200细胞) [2]; [6]
  IC50: 172 µM
KBV200 cells (KBV200细胞) [2]; artemisinin 2.50 μmol/l, 72 h
  inhibition rate (IR): 1.140±2.85%
KBV200 cells (KBV200细胞) [2]; artemisinin 5.00 μmol/l, 72 h
  inhibition rate (IR): 2.690±4.36%
KBV200 cells (KBV200细胞) [2]; artemisinin 20.0 μmol/l, 72 h
  inhibition rate (IR): < 20% and 12.70±2.53%
KBV200 cells (KBV200细胞) [2]; artemisinin 40.0 μmol/l, 72 h
  inhibition rate (IR): < 20% and 19.22±5.59%
KBV200 cells (KBV200细胞) [2]; artemisinin 80.0 μmol/l, 72 h
  inhibition rate (IR): 28.47±2.73%
KBV200 cells (KBV200细胞) [2]; artemisinin 160 μmol/l, 72 h
  inhibition rate (IR): 43.57±5.20%
KBV200 cells (KBV200细胞) [2]; artemisinin above 172.4 umol/l
  inhibition rate: > 50%
KBV200 cells (KBV200细胞) [2]; artemisinin below 2.50 umol/l
  inhibitory effect on KBV200 cells: 几乎无抑制效应
KBV200 cells (KBV200细胞) [2]; artemisinin below 40 umol/l
  inhibition rate: < 20%
KBV200 cells (KBV200细胞) [2]; artemisinin below 80 umol/l
  inhibition rate: < 30%
KBV200 cells (KBV200细胞) [2]; artemisinin below 160 umol/l
  inhibitory effect on KBV200 cells: 抑制效应并不明显
KBV200 cells (KBV200细胞) [2]; overall statement
  inhibitory effect on KBV200 cells: 大浓度具有一定的抑制KBV200细胞增殖效应; also recorded: 均有一定抑制效应
KBV200 cells (KBV200细胞) [3]
  inhibition rate of KBV200 cells on combination with VCR: 明显提高
  reversal of vincristine resistance / sensitisation of KBV200 to VCR: 可部分逆转; also recorded: 具有不同的逆转KBV200耐药效应
KBV200 cells (KBV200细胞) [3]; artemisinin 10 umol/l with VCR, RI = IC50 VCR / IC50 VCR+agent
  reversal fold (RI): 2.29
KBV200 cells (KBV200细胞) [3]; artemisinin 20 umol/l with VCR
  reversal fold (RI): 2.68
KBV200 cells (KBV200细胞) [3]; artemisinin 40 umol/l with VCR
  reversal fold (RI): 3.0

## COC(=O)C[C@](O)(CCCC(C)(C)O)C(=O)O[C@@H]1C(OC)=C[C@]23CCCN2CCc2cc4c(cc2[C@H]13)OCO4 [高三尖杉酯]
KBV200 cells (KBV200细胞) [1]
  resistance: 耐药性较低

## COc1cc([C@@H]2c3cc4c(cc3[C@@H](O[C@@H]3O[C@@H]5CO[C@@H](C)O[C@H]5[C@H](O)[C@H]3O)[C@H]3COC(=O)[C@H]23)OCO4)cc(OC)c1O [鬼臼乙叉甙]
KBV200 cells (KBV200细胞) [1]
  resistance: 耐药性较低

## 人参皂甙Rb1
[4]
  reversal fold: 8.2-13.0
